Laboratory results: patent US10828301B2, “2,4-pyrimidinediamine compounds and their uses” (Rigel Pharmaceuticals, Inc, priority 2002, dated 2020)
Counter-ions that a name gives are not always drawn.

Test system: cultured human mast cells (CHMC)
Assay: CHMC low cell density IgE activation: tryptase and LTC4 assays
Assay type: cell-based
Conditions: Homo sapiens, Mast cell, Low Density CHMC, anti-IgE activation, hexosaminidase readout; read-out: CHMC anti-IgE Hexos.
Experimental: Pellet CHMC cells (980 rpm, 10 min) and resuspend in pre-warmed MT. Add 65 ul of cells to each 96-well plate. Depending on the degranulation activity for each particular CHMC donor, load 1000-1500 cells/well. Mix four times followed by a 1 hr incubation at 37° C. […] Stimulate cells by adding 25 ul of 6× anti-IgE solution to the appropriate plates. Add 25 ul MT to un-stimulated control wells. Mix twice following addition of the anti-IgE. Incubate at 37° C. for 30 minutes. […] Spin plates at 1000 rpm for 10 min to pellet cells. Transfer 25 ul of supernatant to a 96-well black bottom plate and add 100 ul of freshly diluted tryptase substrate solution to each well. Incubate plates at room temperature for 30 min.
Leukotriene C4 (LTC4) is also quantified using an ELISA kit on appropriately diluted supernatant samples (determined empirically for each donor cell population so that the sample measurement falls within the standard curve) following the supplier's instructions.

Q: `COCCNc1ncc(F)c(Nc2ccc3c(c2)OCCO3)n1` [Compound R926229, N4-(3,4-Ethylenedioxyphenyl)-5-fluoro-N2-(2-methoxyethyl)-2,4-pyrimidinediamine] was tested. Which IC50 did it give?
A: The IC50 was greater than 10 µM.

Q: With `COc1ccc(CNc2ncc(F)c(Nc3ccc4c(c3)OCCO4)n2)cc1` [Compound R926230, N4-(3,4-Ethylenedioxyphenyl)-5-fluoro-N2-(4-methoxybenzyl)-2,4-pyrimidinediamine] as the compound, how does the IC50 read?
A: Its IC50 is greater than 10 µM.

Same assay, conditions: Homo sapiens, Mast cell, Low Density CHMC, anti-IgE activation, tryptase readout; read-out: CHMC anti-IgE Tryptase

Q: `COC(=O)C1Cc2cc(Nc3ncc(F)c(Nc4ccc(OC)nc4OC)n3)ccc2O1` (racemic) [Compound R927032, (±)-N2-(2,3-Dihydro-2-methoxycarbonylbenzofuran-5-yl)-N4-(2,6-dimethoxypyridin-3-yl)-5-fluoro-2,4-pyrimidinediamine] was tested. Which IC50 did it give?
A: Its IC50 is 0.899 µM.

Q: For `Cc1ccc(CNc2ncc(F)c(Nc3ccc4c(c3)OCCO4)n2)cc1Cl` [Compound R908696, N2-(3-chloro-4-methylbenzyl)-N4-(3,4-ethylenedioxyphenyl)-5-fluoro-2,4-pyrimidinediamine], which IC50 is on record?
A: The IC50 was 3.55 µM.

Q: For `CN1C(=O)COc2ccc(Nc3nc(Nc4cccc(O)c4)ncc3F)cc21` [Compound R908709, 5-Fluoro-N2-(3-hydroxyphenyl)-N4-(N-methyl-1,4-benzoxazin-3-on-6-yl)-2,4-pyrimidinediamine], which IC50 is on record?
A: The IC50 was 2.41 µM.

Q: For `OC(CNc1ncc(F)c(NCC(O)c2ccccc2)n1)c1ccccc1` (centres unmarked) [Compound R925768, N2,N4-Bis(2-hydroxy-2-phenylethyl)-5-fluoro-2,4-pyrimidinediamine], which IC50 is on record?
A: The IC50 was greater than 10 µM.

Q: `Fc1cnc(NCc2ccco2)nc1NCc1ccco1` [Compound R925769, N2,N4-Bis(furfuryl)-5-fluoro-2,4-pyrimidinediamine] was tested. Which IC50 did it give?
A: The IC50 was greater than 10 µM.

Q: With `CCOC(=O)c1cnc(Nc2ccc3c(c2)OCCO3)nc1Nc1ccc2c(c1)OCCO2` [Compound R926252, N2,N4-Bis(3,4-ethylenedioxyphenyl)-5-ethoxycarbonyl-2,4-pyrimidinediamine] as the compound, how does the IC50 read?
A: The IC50 was 2.8 µM.

Q: `O=C(O)c1cc2cc(Nc3ncc(F)c(Nc4cccc(O)c4)n3)ccc2o1` [Compound R926478, N2-(2-Carboxybenzofuran-5-yl)-5-fluoro-N4-(3-hydroxyphenyl)-2,4-pyrimidinediamine] was tested. Which IC50 did it give?
A: The IC50 was greater than 10 µM.

Q: For `O=C(O)c1cc2cc(Nc3ncc(F)c(Nc4cccc(O)c4)n3)ccc2[nH]1` [Compound R926479, N2-(2-Carboxyindol-5-yl)-5-fluoro-N4-(3-hydroxyphenyl)-2,4-pyrimidinediamine], which IC50 is on record?
A: Its IC50 is greater than 10 µM.

Q: `O=C(O)c1cc2cc(Nc3ncc(F)c(Nc4ccc5c(c4)OCCO5)n3)ccc2o1` [Compound R926698, N4-(3,4-Ethylenedioxyphenyl)-5-fluoro-N2-(2-carboxybenzofuran-5-yl)-2,4-pyrimidinediamine] was tested. Which IC50 did it give?
A: The IC50 was greater than 10 µM.

Q: `Cc1onc(-c2ccccc2)c1Nc1ncc(F)c(Nc2ccc3c(c2)OCCO3)n1` [Compound R926743, N4-(3,4-Ethylenedioxyphenyl)-5-fluoro-N2-(3-phenyl-5-methylisoxazol-4-yl)-2,4-pyrimidinediamine] was tested. Which IC50 did it give?
A: Its IC50 is greater than 10 µM.

Q: With `Cc1noc(C)c1Nc1ncc(F)c(Nc2ccc3c(c2)OCCO3)n1` [Compound R926744, N4-(3,4-Ethylenedioxyphenyl)-5-fluoro-N2-(3,5-dimethylisoxazol-4-yl)-2,4-pyrimidinediamine] as the compound, how does the IC50 read?
A: The IC50 was greater than 10 µM.

Q: `COc1ccc(Nc2nc(Nc3cccc(O)c3)ncc2F)c(OC)n1` [Compound R926887, N4-(2,6-Dimethoxypyridin-3-yl)-5-fluoro-N2-(3-hydroxyphenyl)-2,4-pyrimidinediamine] was tested. Which IC50 did it give?
A: The IC50 was 1.75 µM.

Q: Which IC50 does the source give for `CCOC(=O)C1CCN(C(=O)c2cccc(Nc3ncc(F)c(Nc4ccc5cc[nH]c5c4)n3)c2)CC1` [Compound R926935, N2-[3-[[4-(Ethoxycarbonyl)piperidino]carbonyl]phenyl]-5-fluoro-N4-[(1H)-indol-6-yl]-2,4-pyrimidinediamine] here?
A: Its IC50 is 4.44 µM.

Q: How did the IC50 turn out when `CCOC(=O)C1CCN(C(=O)c2cccc(Nc3ncc(F)c(Nc4cccc(O)c4)n3)c2)CC1` [Compound R926939, N2-[3-[[4-(Ethoxycarbonyl)piperidino]carbonyl]phenyl]-5-fluoro-N4-(3-hydroxyphenyl)-2,4-pyrimidinediamine] was run?
A: The IC50 was 3.62 µM.

Q: Which IC50 does the source give for `CCOC(=O)C1CCN(C(=O)c2cccc(Nc3nc(Nc4cccc(O)c4)ncc3F)c2)CC1` [Compound R926940, N4-[3-[[4-(Ethoxycarbonyl)piperidino]carbonyl]phenyl]-5-fluoro-N2-(3-hydroxyphenyl)-2,4-pyrimidinediamine] here?
A: The IC50 was 7.75 µM.

Q: With `CCOC1CCCc2ccc(Nc3nc(Nc4cccc(O)c4)ncc3F)cc21` (centres unmarked) [Compound R926942, N4-(1-Ethoxy-1,2,3,4-tetrahydronaphthalen-7-yl)-5-fluoro-N2-(3-hydroxyphenyl)-2,4-pyrimidinediamine] as the compound, how does the IC50 read?
A: The IC50 was 4.81 µM.

Q: With `Cc1ccc(Nc2nc(Nc3cccc(O)c3)ncc2F)nc1` [Compound R927017, 5-Fluoro-N2-(3-hydroxyphenyl)-N4-(5-methylpyridin-2-yl)-2,4-pyrimidinediamine] as the compound, how does the IC50 read?
A: Its IC50 is 2.45 µM.

Q: How did the IC50 turn out when `Oc1cccc(Nc2ncc(F)c(Nc3ccc(Cl)nc3)n2)c1` [Compound R927018, N4-(6-Chloropyridin-3-yl)-5-fluoro-N2-(3-hydroxyphenyl)-2,4-pyrimidinediamine] was run?
A: Its IC50 is 1.45 µM.

Q: For `Oc1cccc(Nc2ncc(F)c(Nc3ccc4ncccc4c3)n2)c1` [Compound R927019, 5-Fluoro-N2-(3-hydroxyphenyl)-N4-(quinolin-6-yl)-2,4-pyrimidinediamine], which IC50 is on record?
A: The IC50 was 1.18 µM.

Q: How did the IC50 turn out when `CC(C)(CO)c1ccc(Nc2nc(Nc3ccc4c(c3)OCCO4)ncc2F)cc1` [Compound R935149, N2-(3,4-Ethylenedioxyphenyl)-N4-[4-(2-hydroxy-1,1-dimethylethyl)phenyl]-5-fluoro-2,4-pyrimidinediamine] was run?
A: Its IC50 is 0.708 µM.

Q: How did the IC50 turn out when `CC(C)Oc1ccc(Nc2ncc(F)c(Nn3cccc3)n2)cc1` [Compound R935276, 5-Fluoro-N2-(4-isopropoxyphenyl)-N4-(1H-pyrrol-1-yl)-2,4-pyrimidinediamine] was run?
A: The IC50 was 2.33 µM.

Q: With `COC(=O)c1cc(Nc2ncc(F)c(Nc3ccc(OC)c(C(=O)OC)c3)n2)ccc1OC` [Compound R945066, N2,N4-Bis(4-methoxy-3-methoxycarbonylphenyl)-5-fluoro-2,4-pyrimidinediamine] as the compound, how does the IC50 read?
A: Its IC50 is 5.2 µM.

Q: `COc1ccc(Nc2ncc(F)c(Nc3ccc(OC)c(C(=O)O)c3)n2)cc1C(=O)O` [Compound R945067, N2,N4-Bis(3-carboxy-4-methoxyphenyl)-5-fluoro-2,4-pyrimidinediamine] was tested. Which IC50 did it give?
A: The IC50 was greater than 10 µM.

Q: With `COc1cc(Nc2ncc(F)c(Nc3ccc(C(=O)O)c(OC)c3)n2)ccc1C(=O)O` [Compound R945068, N2,N4-Bis(4-carboxy-3-methoxyphenyl)-5-fluoro-2,4-pyrimidinediamine] as the compound, how does the IC50 read?
A: Its IC50 is greater than 10 µM.

Q: For `Nc1cccc(Nc2ccnc(Nc3cccc(N)c3)n2)c1` [Compound R950109, N2,N4-Bis(3-aminophenyl)-2,4-pyrimidinediamine], which IC50 is on record?
A: The IC50 was 7.95 µM.

Q: `Nc1ccc(Nc2ncc(F)c(Nc3ccc(N)cc3)n2)cc1` [Compound R950121, N2,N4-Bis(4-aminophenyl)-5-fluoro-2,4-pyrimidinediamine Hydrogen Chloride Salt] was tested. Which IC50 did it give?
A: Its IC50 is 4.25 µM.

Q: For `Cc1ccc(Nc2ccnc(Nc3ccc(C)c(N)c3)n2)cc1N` [Compound R950130, N2,N4-Bis(3-amino-4-methylphenyl)-2,4-pyrimidinediamine], which IC50 is on record?
A: Its IC50 is 4.9 µM.

Q: How did the IC50 turn out when `Nc1c(F)ccc(Nc2ccnc(Nc3ccc(F)c(N)c3F)n2)c1F` [Compound R950131, N2,N4-Bis(3-amino-2,4-difluorophenyl)-2,4-pyrimidinediamine] was run?
A: Its IC50 is greater than 10 µM.

Q: How did the IC50 turn out when `COC(=O)c1cc(N)cc(Nc2ccnc(Nc3cc(N)cc(C(=O)OC)c3)n2)c1` [Compound R950132, N2,N4-Bis(3-amino-5-methoxycarbonylphenyl)-2,4-pyrimidinediamine] was run?
A: The IC50 was 9 µM.

Q: `Nc1c(F)ccc(Nc2ncc(F)c(Nc3ccc(F)c(N)c3F)n2)c1F` [Compound R950138, N2,N4-Bis(3-amino-2,4-difluorophenyl)-5-fluoro-2,4-pyrimidinediamine] was tested. Which IC50 did it give?
A: Its IC50 is 9.5 µM.

Q: `CCOc1ccc(Nc2ccnc(Nc3ccc(OCC)c(N)c3)n2)cc1N` [Compound R950142, N2,N4-Bis(3-amino-4-ethoxyphenyl)-2,4-pyrimidinediamine] was tested. Which IC50 did it give?
A: Its IC50 is 10 µM.

Q: For `Nc1cc(Nc2ccnc(Nc3cc(N)cc(C(F)(F)F)c3)n2)cc(C(F)(F)F)c1` [Compound R950143, N2,N4-Bis(3-amino-5-trifluoromethylphenyl)-2,4-pyrimidinediamine], which IC50 is on record?
A: Its IC50 is 8.23 µM.

Same assay, conditions: Homo sapiens, Mast cell, read-out: CHMC anti-IgE Tryptase

Q: For `Cc1ccc(Nc2ncc(F)c(Nc3ccc(C)c([N+](=O)[O-])c3)n2)cc1[N+](=O)[O-]` [Compound R950144, N2,N4-Bis(4-methyl-3-nitrophenyl)-5-fluoro-2,4-pyrimidinediamine], which IC50 is on record?
A: The IC50 was 10 µM.

Q: Which IC50 does the source give for `Cc1ccc([N+](=O)[O-])cc1Nc1ncc(F)c(Nc2cc([N+](=O)[O-])ccc2C)n1` [Compound R950146, N2,N4-Bis(2-methyl-5-nitrophenyl)-5-fluoro-2,4-pyrimidinediamine] here?
A: Its IC50 is greater than 10 µM.

Same assay, conditions: Low Density CHMC, anti-IgE activation, tryptase readout; read-out: CHMC anti-IgE Tryptase

Q: Which IC50 does the source give for `CNC(=O)COc1cccc(Nc2ncc(F)c(Nc3cc(C)ccn3)n2)c1` [Compound R927016, 5-Fluoro-N2-[3-(N-methylamino)carbonylmethyleneoxyphenyl]-N4-(4-methylpyridin-2-yl)-2,4-pyrimidinediamine] here?
A: The IC50 was 1.41 µM.

Q: `O=C(O)Cc1cccc(Nc2ncc(F)c(Nc3cccc(CC(=O)O)c3)n2)c1` [Compound R935117] was tested. Which IC50 did it give?
A: The IC50 was greater than 10 µM.
